Test results as given in patent publication US7705191B2, “Hydrofluoroalkyl phenols having anesthetic properties” (University of Iowa Research Foundation, priority 2006, dated 2010).

Legend:
GABA receptors = assay: In vitro assay of direct activation of GABA receptors; type: cell-based; conditions: FIG. 2
Description: FIG. 2 is a graph showing the direct activation of GABA receptors by phenolic compounds.
Propofol and analogs are known to activate GABA receptors (see, e.g., Trapani et al., J. Med. Chem. 1998, 41, 1846-1854, incorporated herein by reference). While the relationship between GABA activation and anesthetic activity is not completely clear, it is believed that the ability of a compound to directly activate GABA receptors may be related to the anesthetic, sedative, and/or anxiolytic activity of the compound. Compounds of the invention can be tested in vitro electrophysiological assays to determine the ability of the compound to activate GABA receptors.
Certain compounds were tested in an in vitro assay to determine whether the compounds were capable of direct activation of GABA receptors.

rat = assay: Loss of righting reflex / anesthesia after intravenous injection in rats; type: in vivo; conditions: for onset of loss of righting reflex: two rats; for duration of anesthesia / loss of righting reflex: 10 mg/kg i.v. bolus
Protocol: For Examples 2 and 3, compounds were administered into the […] of the rat. The vehicle was 12-16% Cremophor EL dissolved in saline. The purity of each compound was approximately 96%.
Compound 1 was synthesized as described in Example 1. Approximately 15 mg/ml of the suspension were injected into the lateral tail vein of two rats (weight 300-320 g). […] The loss of righting reflex lasted for about 4 to 5 minutes. Upon awaking, the animals became active (e.g., started exploring behavior, walking, chewing, etc.).
Compound 3 (prepared as in Example 1) was formulated in Cremophor EL at a concentration of 10 mg/ml. Compound 3 was injected into the lateral tail vein of two rats at a dose of 10 mg/kg.

[1] = lateral tail vein injection, approximately 15 mg/ml suspension

Row | SMILES | direct activation of GABA receptors (GABA receptors) | response to tail pinching during loss of righting reflex (rat; [1]) | shaking or tremors during induction or recovery (rat; [1]) | onset of loss of righting reflex (rat; lateral tail vein injection, approximately 15 mg/ml suspension, Cremophor EL/saline vehicle) | duration of anesthesia / loss of righting reflex (rat) | potency relative to propofol (rat; 10 mg/kg, inferred from duration of loss of righting reflex) | onset of loss of righting reflex (rat; lateral tail vein injection, 10 mg/kg, 10 mg/ml in Cremophor EL)
1 | CC(C)c1cccc(CC(F)(F)F)c1O [Compound 1, 2-isopropyl-6-(2,2,2-trifluoroethyl) phenol] | found to have activity | did not respond to tail pinching | did not exhibit shaking or tremors | immediately lost their righting reflex | – | – | –
2 | CC(C)c1cccc(C(C)C(F)(F)F)c1O (stereo not shown) [Compound 3, 2-isopropyl-6-(1-trifluoromethyl)ethyl phenol] | found to have activity | – | – | – | approximately 10 min | more potent than propofol | immediately lost their righting reflex
3 | CC(C)c1cc(C(O)C(F)(F)F)cc(C(C)C)c1O (stereo not shown) [MB003, 2,6-Diisopropyl-4-(2,2,2-trifluoro-1-hydroxy-ethyl)-phenol] | found to have activity | – | – | – | – | – | –
4 | CC(C)c1cccc(C(C)C)c1O [Propofol, 2,6-diisopropylphenol, reference compound] | – | – | – | – | 7.5 min | – | –
